Source: ChEMBL document CHEMBL4823252 (J Med Chem, 2021)

Key:
Type in all cases: functional
[1] = test system: MOLM-13; assay: Induction of apoptosis in human MOLM-13 cells assessed as early apoptotic cells at 100 nM incubated for 24 hrs by flow cytometry (reference value: 2.18%)
[2] = test system: MOLM-13; assay: Induction of apoptosis in human MOLM-13 cells assessed as necrotic cells at 100 nM incubated for 24 hrs by flow cytometry (reference value: 0.45%)
[3] = test system: MV4-11; assay: Induction of cell cycle arrest in human MV4-11 cells assessed as accumulation at G1 phase at 10 nM incubated for 24 hrs by flow cytometry (reference value: 64.73%)
[4] = test system: MOLM-13; assay: Induction of apoptosis in human MOLM-13 cells assessed as early apoptotic cells at 10 nM incubated for 24 hrs by flow cytometry (reference value: 2.18%)
[5] = test system: MOLM-13; assay: Antiproliferative activity against human sunitinib-resistant MOLM-13 cells at 1 nM incubated for 72 hrs by CCK8 assay relative to control
[6] = test system: MV4-11; assay: Induction of cell cycle arrest in human MV4-11 cells assessed as accumulation at S phase at 100 nM incubated for 24 hrs by flow cytometry (reference value: 16.31%)
[7] = test system: MOLM-13; assay: Induction of apoptosis in human MOLM-13 cells assessed as viable cells at 100 nM incubated for 24 hrs by flow cytometry (reference value: 92.83%); details: read-out: Activity
[8] = test system: MOLM-13; assay: Induction of apoptosis in human MOLM-13 cells assessed as necrotic apoptotic cells at 1 nM incubated for 24 hrs by flow cytometry (reference value: 0.45%)
[9] = test system: MOLM-13; assay: Induction of cell cycle arrest in human MOLM-13 cells assessed as accumulation at G1 phase at 1 nM incubated for 24 hrs by flow cytometry (reference value: 69.08%)
[10] = test system: MOLM-13; assay: Induction of apoptosis in human MOLM-13 cells assessed as late apoptotic cells at 10 nM incubated for 24 hrs by flow cytometry (reference value: 4.54%)
[11] = test system: MV4-11; assay: Induction of apoptosis in human MV4-11 cells assessed as viable cells at 1 nM incubated for 24 hrs by flow cytometry (reference value: 98.26%); details: read-out: Activity
[12] = test system: MOLM-13; assay: Induction of apoptosis in human MOLM-13 cells assessed as necrotic cells at 10 nM incubated for 24 hrs by flow cytometry (reference value: 0.45%)
[13] = test system: MOLM-13; assay: Antiproliferative activity against human quizartinib-resistant MOLM-13 cells at 12 nM incubated for 72 hrs by CCK8 assay relative to control
[14] = test system: MOLM-13; assay: Induction of cell cycle arrest in human MOLM-13 cells assessed as accumulation at S phase at 10 nM incubated for 24 hrs by flow cytometry (reference value: 16.28%)
[15] = test system: MV4-11; assay: Induction of apoptosis in human MV4-11 cells assessed as early apoptotic cells at 10 nM incubated for 24 hrs by flow cytometry (reference value: 0.31%)
[16] = test system: MV4-11; assay: Induction of apoptosis in human MV4-11 cells assessed as necrotic cells at 100 nM incubated for 24 hrs by flow cytometry (reference value: 0.25%)
[17] = test system: MOLM-13; assay: Antiproliferative activity against human sunitinib-resistant MOLM-13 cells at 1000 nM incubated for 72 hrs by CCK8 assay relative to control
[18] = test system: MV4-11; assay: Induction of cell cycle arrest in human MV4-11 cells assessed as accumulation at S phase at 1 nM incubated for 24 hrs by flow cytometry (reference value: 16.31%)
[19] = test system: MOLM-13; assay: Induction of apoptosis in human MOLM-13 cells assessed as late apoptotic cells at 100 nM incubated for 24 hrs by flow cytometry (reference value: 4.54%)
[20] = test system: MOLM-13; assay: Induction of cell cycle arrest in human MOLM-13 cells assessed as accumulation at G1 phase at 10 nM incubated for 24 hrs by flow cytometry (reference value: 69.08%)
[21] = test system: MV4-11; assay: Induction of apoptosis in human MV4-11 cells assessed as necrotic cells at 1 nM incubated for 24 hrs by flow cytometry (reference value: 0.25%)
[22] = test system: MOLM-13; assay: Induction of apoptosis in human MOLM-13 cells assessed as viable cells at 1 nM incubated for 24 hrs by flow cytometry (reference value: 92.83%); details: read-out: Activity
[23] = test system: MOLM-13; assay: Antiproliferative activity against human sunitinib-resistant MOLM-13 cells at 111 nM incubated for 72 hrs by CCK8 assay relative to control
[24] = test system: MOLM-13; assay: Induction of apoptosis in human MOLM-13 cells assessed as late apoptotic cells at 1 nM incubated for 24 hrs by flow cytometry (reference value: 4.54%)
[25] = test system: MOLM-13; assay: Induction of cell cycle arrest in human MOLM-13 cells assessed as accumulation at sub-G1 phase at 100 nM incubated for 24 hrs by flow cytometry (reference value: 4.24%)
[26] = test system: MV4-11; assay: Induction of cell cycle arrest in human MV4-11 cells assessed as accumulation at G2/M phase at 10 nM incubated for 24 hrs by flow cytometry (reference value: 7.29%)
[27] = test system: MOLM-13; assay: Antiproliferative activity against human quizartinib-resistant MOLM-13 cells at 1000 nM incubated for 72 hrs by CCK8 assay relative to control
[28] = test system: MOLM-13; assay: Induction of cell cycle arrest in human MOLM-13 cells assessed as accumulation at sub-G1 phase at 1 nM incubated for 24 hrs by flow cytometry (reference value: 4.24%)
[29] = test system: MV4-11; assay: Induction of cell cycle arrest in human MV4-11 cells assessed as accumulation at G1 phase at 100 nM incubated for 24 hrs by flow cytometry (reference value: 64.73%)
[30] = test system: MOLM-13; assay: Induction of cell cycle arrest in human MOLM-13 cells assessed as accumulation at G1 phase at 100 nM incubated for 24 hrs by flow cytometry (reference value: 69.08%)
[31] = test system: MV4-11; assay: Induction of apoptosis in human MV4-11 cells assessed as viable cells at 10 nM incubated for 24 hrs by flow cytometry (reference value: 98.86%); details: read-out: Activity
[32] = test system: MOLM-13; assay: Antiproliferative activity against human sunitinib-resistant MOLM-13 cells at 37 nM incubated for 72 hrs by CCK8 assay relative to control
[33] = test system: MOLM-13; assay: Antiproliferative activity against human quizartinib-resistant MOLM-13 cells at 37 nM incubated for 72 hrs by CCK8 assay relative to control
[34] = test system: MOLM-13; assay: Antiproliferative activity against human sunitinib-resistant MOLM-13 cells at 333 nM incubated for 72 hrs by CCK8 assay relative to control
[35] = test system: MV4-11; assay: Induction of apoptosis in human MV4-11 cells assessed as late apoptotic cells at 1 nM incubated for 24 hrs by flow cytometry (reference value: 0.58%)
[36] = test system: MV4-11; assay: Induction of apoptosis in human MV4-11 cells assessed as late apoptotic cells at 10 nM incubated for 24 hrs by flow cytometry (reference value: 0.58%)
[37] = test system: MOLM-13; assay: Antiproliferative activity against human quizartinib-resistant MOLM-13 cells at 1 nM incubated for 72 hrs by CCK8 assay relative to control
[38] = test system: MV4-11; assay: Induction of apoptosis in human MV4-11 cells assessed as early apoptotic cells at 100 nM incubated for 24 hrs by flow cytometry (reference value: 0.31%)
[39] = test system: MOLM-13; assay: Induction of cell cycle arrest in human MOLM-13 cells assessed as accumulation at sub-G1 phase at 10 nM incubated for 24 hrs by flow cytometry (reference value: 4.24%)

Compound | Activity [1] | Activity [2] | Activity [3] | Activity [4] | Activity [5] | Activity [6] | viability at 0.1 µM [7] | Activity [8] | Activity [9] | Activity [10] | viability at 0.001 µM [11] | Activity [12] | Activity [13] | Activity [14] | Activity [15] | Activity [16] | Activity [17] | Activity [18] | Activity [19] | Activity [20] | other results
CCN(CC)CCNC(=O)c1c(C)[nH]c(/C=C2\C(=O)Nc3ccc(F)cc32)c1C [SUNITINIB] | 31.1% | 1.14% | 68.1% | 19.36% | 5.3% | 3.91% | 44.3% | 0.24% | 65.44% | 9.47% | 98.4% | 0.4% | -1.1% | 5.58% | 2.79% | 1.71% | 25.9% | 13.27% | 23.49% | 63.75% | Activity [21]: 0.32%; viability at 0.001 µM [22]: 92.5%; Activity [23]: 1.3%; Activity [24]: 3.32%; Activity [25]: 49.02%; Activity [26]: 2.53%; Activity [27]: 26.6%; Activity [28]: 6.13%; Activity [29]: 60.29%; Activity [30]: 41.02%; viability at 0.01 µM [31]: 89.4%; Activity [32]: 2.6%; Activity [33]: -0.5%; Activity [34]: 6.3%; Activity [35]: 1.03%; Activity [36]: 6.58%; Activity [37]: 0.5%; Activity [38]: 9.64%; Activity [39]: 24.17%
Cc1c(NC(=O)CCN2CCCC2)c[nH]c1/C=C1\C(=O)Nc2ccc(F)cc21 | 34.68% | 0.75% | 66.28% | 22.66% | -4.2% | 4.06% | 43.8% | 0.22% | 68.95% | 14.5% | 97.2% | 0.52% | 2.6% | 4.63% | 3.5% | 1.57% | 67.8% | 11.6% | 20.79% | 59.1% | Activity [21]: 1.38%; viability at 0.001 µM [22]: 91.8%; Activity [23]: 4.9%; Activity [24]: 4.3%; Activity [25]: 42.35%; Activity [26]: 2%; Activity [27]: 60.3%; Activity [28]: 6.76%; Activity [29]: 62.23%; Activity [30]: 47.75%; viability at 0.01 µM [31]: 88%; Activity [32]: 4.7%; Activity [33]: 3.8%; Activity [34]: 18.6%; Activity [35]: 0.99%; Activity [36]: 6.55%; Activity [37]: 1.5%; Activity [38]: 17.98%; Activity [39]: 30.16%
